{
  "source": "PubChem BioAssay AID2060492",
  "about": "(Molecular Pharmacology Branch, DTP, NCI, 2025);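 further: spheroids exposed to compounds for seven days before readout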",
  "tested_on": "695427-040-R-J1-PDC complex spheroids, viability percent T/C",
  "assay": "Anticancer human tumor 695427-040-R-J1-PDC patient-derived colon adenocarcinoma cell line growth inhibition [GQUAD]",
  "conditions": "for IC50: curve of first compound; for viability, T/C: stronger effect = lower value",
  "in_short": "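Viability of tumor cells grown as complex spheroids with endothelial and stromal cells, exposed to drug combinations. Top concentration at or near clinical Cmax (else 10 microM), diluted in half-log increments.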",
  "key": {"[1]": {"conditions": "second compound 0.0316 µM, first compound 0.0316 µM"}, "[2]": {"conditions": "second compound 0.0316 µM, first compound 0.1 µM"}, "[3]": {"conditions": "second compound 0.0316 µM, first compound 0.316 µM"}, "[4]": {"conditions": "second compound 0.0316 µM, first compound 1 µM"}, "[5]": {"conditions": "second compound 0.0316 µM, first compound 3.16 µM"}, "[6]": {"conditions": "second compound 0.0316 µM, first compound 10 µM"}, "[7]": {"conditions": "second compound 0.1 µM, first compound 0.0316 µM"}, "[8]": {"conditions": "second compound 0.1 µM, first compound 0.1 µM"}, "[9]": {"conditions": "second compound 0.1 µM, first compound 0.316 µM"}, "[10]": {"conditions": "second compound 0.1 µM, first compound 1 µM"}, "[11]": {"conditions": "second compound 0.1 µM, first compound 3.16 µM"}, "[12]": {"conditions": "second compound 0.1 µM, first compound 10 µM"}, "[13]": {"conditions": "second compound 0.316 µM, first compound 0.0316 µM"}, "[14]": {"conditions": "second compound 0.316 µM, first compound 0.1 µM"}, "[15]": {"conditions": "second compound 0.316 µM, first compound 0.316 µM"}, "[16]": {"conditions": "second compound 0.316 µM, first compound 1 µM"}, "[17]": {"conditions": "second compound 0.316 µM, first compound 3.16 µM"}, "[18]": {"conditions": "second compound 0.316 µM, first compound 10 µM"}, "[19]": {"conditions": "second compound 1 µM, first compound 0.0316 µM"}, "[20]": {"conditions": "second compound 1 µM, first compound 0.1 µM"}, "[21]": {"conditions": "second compound 1 µM, first compound 0.316 µM"}, "[22]": {"conditions": "second compound 1 µM, first compound 1 µM"}, "[23]": {"conditions": "second compound 1 µM, first compound 3.16 µM"}, "[24]": {"conditions": "second compound 1 µM, first compound 10 µM"}, "[25]": {"conditions": "second compound 3.16 µM, first compound 0.0316 µM"}, "[26]": {"conditions": "second compound 3.16 µM, first compound 0.1 µM"}, "[27]": {"conditions": "second compound 3.16 µM, first compound 0.316 µM"}, "[28]": {"conditions": "second compound 3.16 µM, first compound 1 µM"}, "[29]": {"conditions": "second compound 3.16 µM, first compound 3.16 µM"}, "[30]": {"conditions": "second compound 3.16 µM, first compound 10 µM"}, "[31]": {"conditions": "second compound 10 µM, first compound 0.0316 µM"}, "[32]": {"conditions": "second compound 10 µM, first compound 0.1 µM"}, "[33]": {"conditions": "second compound 10 µM, first compound 0.316 µM"}, "[34]": {"conditions": "second compound 10 µM, first compound 1 µM"}, "[35]": {"conditions": "second compound 10 µM, first compound 3.16 µM"}, "[36]": {"conditions": "second compound 10 µM, first compound 10 µM"}},
  "data": [
    {"smiles": "C=CCn1c(=O)c2cnc(Nc3ccc(N4CCN(C)CC4)cc3)nc2n1-c1cccc(C(C)(C)O)n1", "note": "+ Cc1cnc(CNC(=O)c2c(=O)c3ccc(N4CCCN(C)CC4)nc3n3c2sc2ccccc23)cn1", "values": [
      {"measurement": "IC50", "setting": "second compound 0.0316 µM", "result": 1.72, "unit": "µM"},
      {"measurement": "IC50", "setting": "second compound 0.1 µM", "result": 2.45, "unit": "µM"},
      {"measurement": "IC50", "setting": "second compound 0.316 µM", "result": 5.16, "unit": "µM"},
      {"measurement": "IC50", "setting": "second compound 1 µM", "result": 8.26, "unit": "µM"},
      {"measurement": "IC50", "setting": "second compound 3.16 µM", "result": "< 0.0316", "unit": "µM"},
      {"measurement": "IC50", "setting": "second compound 10 µM", "result": "< 0.0316", "unit": "µM"},
      {"measurement": "viability, T/C", "setting": "[1]", "result": 88.3, "unit": "%"},
      {"measurement": "viability, T/C", "setting": "[2]", "result": 78.8, "unit": "%"},
      {"measurement": "viability, T/C", "setting": "[3]", "result": 73.2, "unit": "%"},
      {"measurement": "viability, T/C", "setting": "[4]", "result": 51.7, "unit": "%"},
      {"measurement": "viability, T/C", "setting": "[5]", "result": 47, "unit": "%"},
      {"measurement": "viability, T/C", "setting": "[6]", "result": 41.1, "unit": "%"},
      {"measurement": "viability, T/C", "setting": "[7]", "result": 79.5, "unit": "%"},
      {"measurement": "viability, T/C", "setting": "[8]", "result": 71, "unit": "%"},
      {"measurement": "viability, T/C", "setting": "[9]", "result": 65.2, "unit": "%"},
      {"measurement": "viability, T/C", "setting": "[10]", "result": 49.4, "unit": "%"},
      {"measurement": "viability, T/C", "setting": "[11]", "result": 53.8, "unit": "%"},
      {"measurement": "viability, T/C", "setting": "[12]", "result": 40.8, "unit": "%"},
      {"measurement": "viability, T/C", "setting": "[13]", "result": 74.8, "unit": "%"},
      {"measurement": "viability, T/C", "setting": "[14]", "result": 55, "unit": "%"},
      {"measurement": "viability, T/C", "setting": "[15]", "result": 67.6, "unit": "%"},
      {"measurement": "viability, T/C", "setting": "[16]", "result": 58.5, "unit": "%"},
      {"measurement": "viability, T/C", "setting": "[17]", "result": 59.3, "unit": "%"},
      {"measurement": "viability, T/C", "setting": "[18]", "result": 40.6, "unit": "%"},
      {"measurement": "viability, T/C", "setting": "[19]", "result": 51.6, "unit": "%"},
      {"measurement": "viability, T/C", "setting": "[20]", "result": 57.2, "unit": "%"},
      {"measurement": "viability, T/C", "setting": "[21]", "result": 62, "unit": "%"},
      {"measurement": "viability, T/C", "setting": "[22]", "result": 43, "unit": "%"},
      {"measurement": "viability, T/C", "setting": "[23]", "result": 55.2, "unit": "%"},
      {"measurement": "viability, T/C", "setting": "[24]", "result": 49.5, "unit": "%"},
      {"measurement": "viability, T/C", "setting": "[25]", "result": 32.3, "unit": "%"},
      {"measurement": "viability, T/C", "setting": "[26]", "result": 49.6, "unit": "%"},
      {"measurement": "viability, T/C", "setting": "[27]", "result": 48.6, "unit": "%"},
      {"measurement": "viability, T/C", "setting": "[28]", "result": 33.4, "unit": "%"},
      {"measurement": "viability, T/C", "setting": "[29]", "result": 28.8, "unit": "%"},
      {"measurement": "viability, T/C", "setting": "[30]", "result": 28.6, "unit": "%"},
      {"measurement": "viability, T/C", "setting": "[31]", "result": 9.19, "unit": "%"},
      {"measurement": "viability, T/C", "setting": "[32]", "result": 15.3, "unit": "%"},
      {"measurement": "viability, T/C", "setting": "[33]", "result": 32.1, "unit": "%"},
      {"measurement": "viability, T/C", "setting": "[34]", "result": 25, "unit": "%"},
      {"measurement": "viability, T/C", "setting": "[35]", "result": 14.7, "unit": "%"},
      {"measurement": "viability, T/C", "setting": "[36]", "result": 0.75, "unit": "%"}
    ]},
    {"smiles": "CC(C)(O)C1CCC(Nc2ccc3ncc(-c4cccc(C(F)(F)F)c4)n3n2)CC1", "note": "(centres undefined) + Cc1cnc(CNC(=O)c2c(=O)c3ccc(N4CCCN(C)CC4)nc3n3c2sc2ccccc23)cn1", "values": [
      {"measurement": "IC50", "setting": "second compound 0.0316 µM", "result": 1.11, "unit": "µM"},
      {"measurement": "IC50", "setting": "second compound 0.1 µM", "result": 0.848, "unit": "µM"},
      {"measurement": "IC50", "setting": "second compound 0.316 µM", "result": 1.07, "unit": "µM"},
      {"measurement": "IC50", "setting": "second compound 1 µM", "result": 0.324, "unit": "µM"},
      {"measurement": "IC50", "setting": "second compound 3.16 µM", "result": "< 0.0316", "unit": "µM"},
      {"measurement": "IC50", "setting": "second compound 10 µM", "result": "< 0.0316", "unit": "µM"},
      {"measurement": "viability, T/C", "setting": "[1]", "result": 82.1, "unit": "%"},
      {"measurement": "viability, T/C", "setting": "[2]", "result": 77.6, "unit": "%"},
      {"measurement": "viability, T/C", "setting": "[3]", "result": 73.5, "unit": "%"},
      {"measurement": "viability, T/C", "setting": "[4]", "result": 54.2, "unit": "%"},
      {"measurement": "viability, T/C", "setting": "[5]", "result": 8.38, "unit": "%"},
      {"measurement": "viability, T/C", "setting": "[6]", "result": 11.3, "unit": "%"},
      {"measurement": "viability, T/C", "setting": "[7]", "result": 86.5, "unit": "%"},
      {"measurement": "viability, T/C", "setting": "[8]", "result": 61.3, "unit": "%"},
      {"measurement": "viability, T/C", "setting": "[9]", "result": 78.2, "unit": "%"},
      {"measurement": "viability, T/C", "setting": "[10]", "result": 45.8, "unit": "%"},
      {"measurement": "viability, T/C", "setting": "[11]", "result": 12.6, "unit": "%"},
      {"measurement": "viability, T/C", "setting": "[12]", "result": 11.2, "unit": "%"},
      {"measurement": "viability, T/C", "setting": "[13]", "result": 75.2, "unit": "%"},
      {"measurement": "viability, T/C", "setting": "[14]", "result": 52.5, "unit": "%"},
      {"measurement": "viability, T/C", "setting": "[15]", "result": 62.6, "unit": "%"},
      {"measurement": "viability, T/C", "setting": "[16]", "result": 52.5, "unit": "%"},
      {"measurement": "viability, T/C", "setting": "[17]", "result": 8.9, "unit": "%"},
      {"measurement": "viability, T/C", "setting": "[18]", "result": 11.4, "unit": "%"},
      {"measurement": "viability, T/C", "setting": "[19]", "result": 67.3, "unit": "%"},
      {"measurement": "viability, T/C", "setting": "[20]", "result": 59.8, "unit": "%"},
      {"measurement": "viability, T/C", "setting": "[21]", "result": 46.9, "unit": "%"},
      {"measurement": "viability, T/C", "setting": "[22]", "result": 34.7, "unit": "%"},
      {"measurement": "viability, T/C", "setting": "[23]", "result": 1.37, "unit": "%"},
      {"measurement": "viability, T/C", "setting": "[24]", "result": 4.04, "unit": "%"},
      {"measurement": "viability, T/C", "setting": "[25]", "result": 44.2, "unit": "%"},
      {"measurement": "viability, T/C", "setting": "[26]", "result": 40.6, "unit": "%"},
      {"measurement": "viability, T/C", "setting": "[27]", "result": 50.6, "unit": "%"},
      {"measurement": "viability, T/C", "setting": "[28]", "result": 17.7, "unit": "%"},
      {"measurement": "viability, T/C", "setting": "[29]", "result": 0.11, "unit": "%"},
      {"measurement": "viability, T/C", "setting": "[30]", "result": 0.15, "unit": "%"},
      {"measurement": "viability, T/C", "setting": "[31]", "result": 24.7, "unit": "%"},
      {"measurement": "viability, T/C", "setting": "[32]", "result": 21.9, "unit": "%"},
      {"measurement": "viability, T/C", "setting": "[33]", "result": 12.1, "unit": "%"},
      {"measurement": "viability, T/C", "setting": "[34]", "result": 0.26, "unit": "%"},
      {"measurement": "viability, T/C", "setting": "[35]", "result": 0.2, "unit": "%"},
      {"measurement": "viability, T/C", "setting": "[36]", "result": 0.19, "unit": "%"}
    ]}
  ]
}
